Consider 33 molecules from paper PMC11855827, “High-Throughput Screening of Five Compound Libraries for Anthelmintic Activity and Toxicity Leads to the Discovery of Two Flavonoid Compounds” (International Journal of Molecular Sciences, 2025).

This experiment deals with C. elegans. The experiment in a line: microbe, parasite or virus in culture. As to conditions: Caenorhabditis elegans.
The mark [1] stands for this setting: 0 h, read-out: Percentage of motility inhibition 0 h.
[2] abbreviates: 24 h, read-out: Percentage of motility inhibition 24 h.
Setting [3] is: 0 h, read-out: Percentage of motility inhibition 0 h, Table S2, C. elegans SS assay, 110 μM, 0 h, averages of 4 data points.
Setting [4] is: 24 h, read-out: Percentage of motility inhibition 24 h, Table S2, C. elegans SS assay, 110 μM, 24 h, averages of 4 data points.

The structures appear in SMILES notation. Like-named read-outs stand apart in the source and are kept apart here.

Take `C/C(=C\CC[C@@H](C)[C@H]1CC[C@@]2(C)C3=C(CC[C@]12C)[C@@]1(C)CCC(=O)C(C)(C)[C@@H]1CC3=O)C(=O)O` [Ganoderic acid DM]: the inhibition at 110 µM under setting [1] came out at 6% and the inhibition at 110 µM under setting [2] is 1%.

For `CC(CC(=O)C[C@@H](C)[C@H]1CC(=O)[C@@]2(C)C3=C(C(=O)C[C@]12C)[C@@]1(C)CCC(=O)C(C)(C)[C@@H]1C[C@@H]3O)C(=O)O` (stereo partly drawn) [Ganoderic acid D], the inhibition at 110 µM is 0% under setting [3] and 21% under setting [4].

With `CC(=O)O[C@@H]1C(=O)C2=C(C(=O)C[C@H]3C(C)(C)C(=O)CC[C@]23C)[C@]2(C)C(=O)C[C@H]([C@H](C)CC(=O)CC(C)C(=O)O)[C@@]12C` (stereo partly drawn) [Ganoderic acid F], the inhibition at 110 µM under setting [3] is 14% and the inhibition at 110 µM under setting [4] was found to be 2%.

For `CC(CC(=O)C[C@@H](C)[C@H]1CC(=O)[C@@]2(C)C3=C(C(=O)[C@@H](O)[C@]12C)[C@@]1(C)CC[C@H](O)C(C)(C)[C@@H]1C[C@@H]3O)C(=O)O` (stereo partly drawn) [Ganoderic acid G], the inhibition at 110 µM amounted to 0% under setting [3] and 3% under setting [4].

Take `C/C(=C\CC[C@@H](C)[C@H]1CC[C@@]2(C)C3=CC[C@H]4C(C)(C)[C@@H](O)CC[C@]4(C)C3=CC[C@]12C)CO` [Ganoderol B]: the inhibition at 110 µM under setting [3] stood at 5% and the inhibition at 110 µM under setting [4] came out at 35%.

Turning to `C=C(C)[C@@H](CC=C(C)C)C[C@@]12C[C@@H](CC=C(C)C)C(C)(C)[C@@](CC=C(C)C)(C(=O)C(C(=O)c3ccc(O)c(O)c3)=C1O)C2=O` [Garcinol], the inhibition at 110 µM stood at 8% under setting [3] and 3% under setting [4].

For the molecule `COc1ccc(-c2cc(=O)c3c(O)c(OC)c(OC)c(OC)c3o2)cc1` [Gardenin B], the inhibition at 110 µM runs as follows: under setting [3], 6%; under setting [4], 0%.

`COC(=O)C1=CO[C@@H](O[C@@H]2O[C@H](CO)[C@@H](O)[C@H](O)[C@H]2O)[C@H]2[C@@H]1C=C[C@@]2(O)CO` [Gardenoside]: the inhibition at 110 µM was 0% under setting [1] and 8% under setting [2].

With `OCc1ccc(O[C@@H]2O[C@H](CO)[C@@H](O)[C@H](O)[C@H]2O)cc1` [Gastrodin], the inhibition at 110 µM is 4% under setting [1] and 8% under setting [2].

On to `COc1c(N2CCNC(C)C2)c(F)cc2c(=O)c(C(=O)O)cn(C3CC3)c12` (stereo not drawn) [Gatifloxaci n], for which the inhibition at 110 µM by setting is: under setting [3], 0%; under setting [4], 0%.

Turning to `C=C[C@]12CN(C)[C@@H]3[C@H]4CO[C@H](C[C@H]41)[C@]1(C(=O)Nc4ccccc41)[C@@H]32` [Gelsemi ne], the inhibition at 110 µM runs as follows: under setting [3], 0%; under setting [4], 0%.

Consider `COC(=O)C1=CO[C@@H](O)[C@@H]2C(CO)=CC[C@H]12` [Genipin], for which the inhibition at 110 µM is, setting by setting: under setting [3], 0%; under setting [4], 0%.

`COC(=O)C1=CO[C@@H](O[C@@H]2O[C@H](CO)[C@@H](O)[C@H](O)[C@H]2O)[C@@H]2C(CO)=CC[C@H]12` [Geniposide]: the inhibition at 110 µM was determined as 0% under setting [3] and 0% under setting [4].

As for `O=C(O)C1=CO[C@@H](O[C@@H]2O[C@H](CO)[C@@H](O)[C@H](O)[C@H]2O)[C@@H]2C(CO)=CC[C@H]12` [Geniposidic acid], the inhibition at 110 µM by setting is: under setting [3], 0%; under setting [4], 3%.

For the molecule `O=c1c(-c2ccc(O)cc2)coc2cc(O)cc(O)c12` [Genistein], the inhibition at 110 µM runs as follows: under setting [3], 5%; under setting [4], 2%.

Turning to `O=c1c(-c2ccc(O)cc2)coc2cc(O[C@@H]3O[C@H](CO)[C@@H](O)[C@H](O)[C@H]3O)cc(O)c12` [Genistin], the inhibition at 110 µM worked out at 29% under setting [3] and 19% under setting [4].

`COc1cc(O)c2c(=O)cc(-c3ccc(O)cc3)oc2c1` [Genkwanin]: the inhibition at 110 µM amounted to 34% under setting [3] and 4% under setting [4].

For the molecule `C=C[C@@H]1C2=CCOC(=O)C2=CO[C@H]1O[C@@H]1O[C@H](CO)[C@@H](O)[C@H](O)[C@H]1O` [Gentiopicroside], the inhibition at 110 µM is, setting by setting: under setting [3], 0%; under setting [4], 19%.

For the molecule `CC(C)=CCC/C(C)=C/CO` [Geraniol], the inhibition at 110 µM reads like this: under setting [3], 0%; under setting [4], 3%.

For `C=C1C[C@]23C[C@@]1(O)CC[C@H]2[C@@]12C=C[C@H](O)[C@@](C)(C(=O)O1)[C@H]2[C@@H]3C(=O)O` [Gibberellic acid], the inhibition at 110 µM is 17% under setting [3] and 22% under setting [4].

In the case of `COc1cc(O)c2c(=O)cc(-c3ccc(OC)c(-c4c(O)cc(O)c5c(=O)cc(-c6ccc(O)cc6)oc45)c3)oc2c1` [Ginkgetin], the inhibition at 110 µM stood at 13% under setting [3] and 16% under setting [4].

`C[C@@H]1C(=O)O[C@H]2C[C@@]34[C@H]5C[C@@H](C(C)(C)C)[C@]36[C@@H](OC(=O)[C@@H]6O)O[C@@]4(C(=O)O5)[C@]21O` [Ginkgolide A]: the inhibition at 110 µM was 2% under setting [3] and 8% under setting [4].

As for `CC(C)=CCC[C@](C)(O[C@@H]1O[C@H](CO)[C@@H](O)[C@H](O)[C@H]1O)[C@H]1CC[C@]2(C)[C@@H]1[C@H](O)C[C@@H]1[C@@]3(C)CC[C@H](O)C(C)(C)[C@@H]3[C@@H](O)C[C@]12C` [Ginsenoside F1], the inhibition at 110 µM amounted to 10% under setting [3] and 2% under setting [4].

For the molecule `CC(C)=CCC[C@](C)(O[C@@H]1O[C@H](CO)[C@@H](O)[C@H](O)[C@H]1O)[C@H]1CC[C@]2(C)[C@@H]1[C@H](O)C[C@@H]1[C@@]3(C)CC[C@H](O[C@@H]4O[C@H](CO)[C@@H](O)[C@H](O)[C@H]4O)C(C)(C)[C@@H]3CC[C@]12C` [Ginsenoside F2], the inhibition at 110 µM by setting is: under setting [3], 0%; under setting [4], 45%.

`CC(C)=CCC[C@](C)(O[C@@H]1O[C@H](CO[C@@H]2OC[C@H](O)[C@H](O)[C@H]2O)[C@@H](O)[C@H](O)[C@H]1O)[C@H]1CC[C@]2(C)[C@@H]1[C@H](O)C[C@@H]1[C@@]3(C)CC[C@H](O)C(C)(C)[C@@H]3[C@@H](O)C[C@]12C` [Ginsenoside F3]: the inhibition at 110 µM is, setting by setting: under setting [3], 2%; under setting [4], 34%.

In the case of `CC(C)=CCC[C@](C)(O[C@@H]1O[C@H](CO[C@H]2O[C@H](CO)[C@@H](O)[C@@H]2O)[C@@H](O)[C@H](O)[C@H]1O)[C@H]1CC[C@]2(C)[C@@H]1[C@H](O)C[C@@H]1[C@@]3(C)CC[C@H](O)C(C)(C)[C@@H]3[C@@H](O)C[C@]12C` [Ginsenoside F5], the inhibition at 110 µM is, setting by setting: under setting [3], 43%; under setting [4], 17%.

Turning to `CC(C)=CCC[C@](C)(O[C@@H]1O[C@H](CO[C@@H]2O[C@H](CO)[C@@H](O)[C@H](O)[C@H]2O)[C@@H](O)[C@H](O)[C@H]1O)[C@H]1CC[C@]2(C)[C@@H]1[C@H](O)C[C@@H]1[C@@]3(C)CC[C@H](O[C@@H]4O[C@H](CO)[C@@H](O)[C@H](O)[C@H]4O[C@@H]4O[C@H](CO)[C@@H](O)[C@H](O)[C@H]4O)C(C)(C)[C@@H]3CC[C@]12C` [Ginsenoside Rb1], the inhibition at 110 µM runs as follows: under setting [3], 4%; under setting [4], 0%.

Turning to `CC(C)=CCC[C@](C)(O[C@@H]1O[C@H](CO[C@@H]2OC[C@H](O)[C@H](O)[C@H]2O)[C@@H](O)[C@H](O)[C@H]1O)[C@H]1CC[C@]2(C)[C@@H]1[C@H](O)C[C@@H]1[C@@]3(C)CC[C@H](O[C@@H]4O[C@H](CO)[C@@H](O)[C@H](O)[C@H]4O[C@@H]4O[C@H](CO)[C@@H](O)[C@H](O)[C@H]4O)C(C)(C)[C@@H]3CC[C@]12C` [Ginsenoside Rb2], the inhibition at 110 µM runs as follows: under setting [3], 7%; under setting [4], 0%.

With `CC(C)=CCC[C@](C)(O[C@@H]1O[C@H](CO[C@@H]2OC[C@@H](O)[C@H](O)[C@H]2O)[C@@H](O)[C@H](O)[C@H]1O)[C@H]1CC[C@]2(C)[C@@H]1[C@H](O)C[C@@H]1[C@@]3(C)CC[C@H](O[C@@H]4O[C@H](CO)[C@@H](O)[C@H](O)[C@H]4O[C@@H]4O[C@H](CO)[C@@H](O)[C@H](O)[C@H]4O)C(C)(C)[C@@H]3CC[C@]12C` [Ginsenoside Rb3], the inhibition at 110 µM was 6% under setting [3] and 1% under setting [4].

`CC(C)=CCC[C@](C)(O[C@@H]1O[C@H](CO[C@@H]2O[C@@H](CO)[C@H](O)[C@H]2O)[C@@H](O)[C@H](O)[C@H]1O)[C@H]1CC[C@]2(C)[C@@H]1[C@H](O)C[C@@H]1[C@@]3(C)CC[C@H](O[C@@H]4O[C@H](CO)[C@@H](O)[C@H](O)[C@H]4O[C@@H]4O[C@H](CO)[C@@H](O)[C@H](O)[C@H]4O)C(C)(C)[C@@H]3CC[C@]12C` [Ginsenoside Rc]: the inhibition at 110 µM under setting [3] was 0% and the inhibition at 110 µM under setting [4] came out at 0%.

Turning to `CC(C)=CCC[C@](C)(O[C@@H]1O[C@H](CO)[C@@H](O)[C@H](O)[C@H]1O)[C@H]1CC[C@]2(C)[C@@H]1[C@H](O)C[C@@H]1[C@@]3(C)CC[C@H](O[C@@H]4O[C@H](CO)[C@@H](O)[C@H](O)[C@H]4O[C@@H]4O[C@H](CO)[C@@H](O)[C@H](O)[C@H]4O)C(C)(C)[C@@H]3CC[C@]12C` [Ginsenoside Rd], the inhibition at 110 µM came to 4% under setting [3] and 4% under setting [4].

For the molecule `CC(C)=CCC[C@](C)(O[C@@H]1O[C@H](CO)[C@@H](O)[C@H](O)[C@H]1O)[C@H]1CC[C@]2(C)[C@@H]1[C@H](O)C[C@@H]1[C@@]3(C)CC[C@H](O)C(C)(C)[C@@H]3[C@@H](O[C@@H]3O[C@H](CO)[C@@H](O)[C@H](O)[C@H]3O[C@@H]3O[C@@H](C)[C@H](O)[C@@H](O)[C@H]3O)C[C@]12C` [Ginsenoside Re], the inhibition at 110 µM is, setting by setting: under setting [3], 0%; under setting [4], 0%.

Regarding `CC(C)=CCC[C@](C)(O)[C@H]1CC[C@]2(C)[C@@H]1[C@H](O)C[C@@H]1[C@@]3(C)CC[C@H](O)C(C)(C)[C@@H]3[C@@H](O[C@@H]3O[C@H](CO)[C@@H](O)[C@H](O)[C@H]3O[C@@H]3O[C@H](CO)[C@@H](O)[C@H](O)[C@H]3O)C[C@]12C` [Ginsenoside Rf], the inhibition at 110 µM reads like this: under setting [3], 0%; under setting [4], 0%.
